For 19 molecules, CC50 and EC50 results are on record in patent US7951789B2 (priority 2006, dated 2011).

Like-named read-outs stand apart in the source and are kept apart here. Some results are limits rather than exact numbers.

The nature of series [1]: Cytotoxicity evaluation in GS4.1 cells (Cell Titer 96 AQueous One Solution). The settings on record: human; for CC50: 72 hours. The class given is cell-based. The method, then:
(§1) Huh-7 cells containing HCV Conl subgenomic replicon (GS4.1 cells), (C. Seeger; Fox Chase University, Philadelphia, Pa., USA), are grown in Dulbecco's Modified Eagle Medium (DMEM) supplemented with 10% fetal bovine serum (FBS), 2 mM L-glutamine, 110 mg/L sodium pyruvate, 1×non-essential amino acids, 100 U/mL penicillin-streptomycin and 0.5 mg/mL G418 (Invitrogen). For dose-response testing, the cells are seeded in 96-well plates at 7.5×10^3 cells/well in a volume of 50 μL and incubated at 37° C./5% CO2. Three hours after plating, 50 μL of ten 2-fold serial dilutions of compounds (highest concentration, 75 μM) are added and cell cultures were incubated at 37° C./5% CO2 in the presence of 0.5% DMSO. Alternatively, compounds are tested at a single concentration of 15 μM. In all cases, Huh-7 cells lacking the HCV replicon served as negative control. The cells are incubated in the presence of compounds for 72 hours after which they were monitored for expression of the NS4A protein by enzyme-linked immunosorbent assay (ELISA). For this, the plates were then fixed for 1 min with 1:1 acetone:methanol, washed twice with phosphate-buffered saline (PBS), 0.1% Tween 20, blocked for 1 hour at room temperature with TNE buffer containing 10% FBS and then incubated for 2 h at 37° C. with the anti-NS4A mouse monoclonal antibody A-236 (ViroGen) diluted in the same buffer. After washing three times with PBS, 0.1% Tween 20, the cells are incubated 1 hour at 37° C. with anti-mouse immunoglobulin G-peroxidase conjugate in TNE, 10% FBS. After washing as described above, the reaction is developed with O-phenylenediamine (Zymed). The reaction is stopped after 30 minutes with […] and the absorbance is read at 492 nm using a Sunrise Tecan spectrophotometer. EC50 values are determined from the % inhibition versus concentration data using a sigmoidal non-linear regression analysis based on four parameters with Tecan Magellan software. […] For cytotoxicity evaluation, GS4.1 cells are treated with compounds as described above and cellular viability was monitored using a Cell Titer 96 AQueous One Solution Cell Proliferation Assay (Promega). CC50 values are determined from the % cytotoxicity versus concentration data with Tecan Magellan software as described above.

Series [2] relates to HCV Conl subgenomic replicon (GS4.1 cells). The series is described as follows: HCV replicon assay (NS4A ELISA, HCV ELISA 2). The settings on record: Hepatitis C virus. The series is classed as cell-based. The method, then: as §1
Where [3] appears, read: GS4.1 cells, 72 hours, NS4A ELISA, read-out: HCV ELISA 2 EC50.
Setting [4] is: 72 h, read-out: HCV ELISA 2 EC50 (μM).

The molecule `CC(C)(CO)C(=O)SCCOP(=O)(NCc1ccccc1)OC[C@H]1O[C@@H](n2cnc3c(=O)[nH]cnc32)[C@](C)(O)[C@@H]1O` (mixture of isomers) [Example B186, Hydroxy-tBuSATE N-benzylphosphoramidate Derivative of 2′-C-methylinosine] returned a CC50 in series [1] of over 75 µM. Besides, the EC50 in series [2] (setting [3]) was in the range of 1 to 10 µM.
Molecule `CCCCN(CCCC)P(=O)(OCCSC(=O)C(C)(C)CO)OC[C@H]1O[C@@H](n2ccc(N)nc2=O)[C@](C)(O)[C@@H]1O` (mixture of isomers) [Example B244, Hydroxy-tBuSATE N,N-(dibutylamine)phosphoramidate Derivative of 2′-C-methylcytidine] registered a CC50 at 72 h in series [1] of over 75 µM. For the same molecule, in series [2] (setting [4]), the EC50 was over 10 µM.
On to `CC(C)(CO)C(=O)SCCOP(=O)(NCc1ccccc1)OC[C@H]1O[C@@H](n2cnc3c(N)ncnc32)[C@](C)(O)[C@@H]1O` (mixture of isomers) [Example B263, Hydroxy-tBuSATE N-benzylphosphoramidate Derivative of 2′-C-methyladenosine], for which the CC50 in series [1] is over 75 µM. For the same molecule, the EC50 in series [2] (setting [3]) was 1 to 10 µM.
For `CC(C)(CO)C(=O)SCCOP(=O)(NCc1ccccc1)OC[C@H]1O[C@@H](n2cnc3c(=O)[nH]c(N)nc32)[C@](C)(O)[C@@H]1O` (mixture of isomers) [Example B299, Hydroxy-tBuSATE N-benzylphosphoramidate Derivative of 2′-C-methylguanosine], the CC50 in series [1] was over 75 µM. The EC50 in series [2] (setting [3]) was under 1 µM.
Molecule `CN(Cc1ccccc1)P(=O)(OCCSC(=O)C(C)(C)CO)OC[C@H]1O[C@@H](n2ccc(N)nc2=O)[C@](C)(O)[C@@H]1O` (mixture of isomers) [Example B308, Hydroxy-tBuSATE N-methylbenzylphosphosphoramidate Derivative of 2′-C-methyl-cytidine] displayed a CC50 at 72 h in series [1] of over 75 µM. Besides, in series [2] (setting [4]), the EC50 lay within 1 to 10 µM.
On to `CC(C)(CO)C(=O)SCCOP(=O)(OC[C@H]1O[C@@H](n2ccc(N)nc2=O)[C@](C)(O)[C@@H]1O)N1CCCCC1` (mixture of isomers) [Example B353, Hydroxy-tBuSATE N-piperidinephosphosphoramidate Derivative of 2′-C-methyl-cytidine], for which, in series [1], the CC50 at 72 h was over 75 µM. In addition, the EC50 in series [2] (setting [4]) was over 10 µM.
On the same counts, the results for `CC(C)(CO)C(=O)SCCOP(=O)(OC[C@H]1O[C@@H](n2ccc(N)nc2=O)[C@](C)(O)[C@@H]1O)N1CCOCC1` (mixture of isomers) [Example B391, Hydroxy-tBuSATE N-morpholinophosphosphoramidate Derivative of 2′-C-methylcytidine] are over 75 µM and over 10 µM.
Take `CC(C)(CO)C(=O)SCCOP(=O)(OC[C@H]1O[C@@H](n2ccc(N)nc2=O)[C@](C)(O)[C@@H]1O)N1CCCC1` (mixture of isomers) [Example B395, Hydroxy-tBuSATE N-pyrrolidinephosphosphoramidate Derivative of 2′-C-methylcytidine]: in series [1], the CC50 at 72 h is over 75 µM. Moreover, the EC50 in series [2] (setting [4]) fell in the range of 1 to 10 µM.
For `CC(C)(CO)C(=O)SCCOP(=O)(NCc1ccccc1)OC[C@H]1O[C@@H](n2cc(F)c3c(N)ncnc32)[C@](C)(O)[C@@H]1O` (mixture of isomers) [Example B436, Hydroxy-tBuSATE N-benzylphosphoramidate Derivative of 2′-C-methyl-7-deaza-7-fluoro-adenosine], the CC50 in series [1] is over 75 µM. Besides, in series [2] (setting [3]), the EC50 lay in the range of 1 to 10 µM.
`CC(=O)Nc1ccn([C@@H]2O[C@H](COP(=O)(NCc3ccccc3)OCCSC(=O)C(C)(C)CO)[C@@H](O)[C@@]2(C)O)c(=O)n1` (stereo in doubt) [Example B183, Hydroxy-tBuSATE N-benzylphosphoramidate Derivative of 2′-C-methyl-NH-4-acetyl-cytidine] came in with a CC50 in series [1] of over 75 µM. Further, the EC50 in series [2] (setting [3]) was over 10 µM.
Molecule `CC(C)(CO)C(=O)SCCOP(=O)(NCc1ccccc1C(F)(F)F)OC[C@H]1O[C@@H](n2ccc(N)nc2=O)[C@](C)(O)[C@@H]1O` (stereo in doubt) [Example B187, Hydroxy-tBuSATE N-(2-(trifluoromethyl)benzyl)phosphosphoramidate Derivative of 2′-C-methylcytidine] registered a CC50 in series [1] of over 75 µM. For the same molecule, the half-maximal effective concentration (EC50) in series [2] (setting [3]) was in the range of 1 to 10 µM.
In series [1], `CCCCCCCCN(C)P(=O)(OCCSC(=O)C(C)(C)CO)OC[C@H]1O[C@@H](n2ccc(N)nc2=O)[C@](C)(O)[C@@H]1O` (stereo in doubt) [Example B204, Hydroxy-tBuSATE N-(n-methyl-n-octyl-amine)phosphosphoramidate Derivative of 2′-C-methylcytidine] showed a CC50 at 72 h of over 75 µM. Further, in series [2] (setting [4]), the EC50 fell in the range of 1 to 10 µM.
In series [1], `CC(C)(CO)C(=O)SCCOP(=O)(NCc1ccc(C(F)(F)F)cc1)OC[C@H]1O[C@@H](n2cnc3c(=O)[nH]c(N)nc32)[C@](C)(O)[C@@H]1O` (stereo in doubt) [Example B242, O-(Hydroxy-tert-butyl-S-acyl-2-thioethyl)-2′-C-methylguanosin-5′-yl-N-(4-trifluoromethyl)-benzylaminyl Phosphate] yielded a CC50 of over 75 µM. Further, the half-maximal effective concentration (EC50) in series [2] (setting [3]) was under 1 µM.
In the same order, the values of `CC(C)(CO)C(=O)SCCOP(=O)(NCc1ccccc1)OC[C@H]1O[C@@H](n2cnc3c(=O)[nH]c(N)nc32)[C@]2(C)OC(=O)O[C@H]12` (stereo in doubt) [Example B307, N-Benzylaminyl-O-(hydroxy-tert-butyl-S-acyl-2-thioethyl)-2′,3′-O-carbonate-2′-C-methylguanosin-5′-yl phosphate] are over 75 µM and under 1 µM.
For `CC(C)(CO)C(=O)SCCOP(=O)(NC1CCCCC1)OC[C@H]1O[C@@H](n2ccc(N)nc2=O)[C@](C)(O)[C@@H]1O` (stereo in doubt) [Example B354, Hydroxy-tBuSATE N-cyclohexylaminephosphosphoramidate Derivative of 2′-C-methyl-cytidine], the CC50 in series [1] was over 75 µM. Moreover, the EC50 in series [2] (setting [3]) was 1 to 10 µM.
`CC(=O)O[C@@H]1[C@@H](COP(=O)(NCc2ccccc2)OCCSC(=O)C(C)(C)CO)O[C@@H](n2ccc(N)nc2=O)[C@]1(C)OC(C)=O` (stereo in doubt) [Example B390, Hydroxy-tBuSATE N-benzylphosphoramidate Derivative of 2′-C-methyl-2′,3′-di-O-acetyl-cytidine]: the CC50 in series [1] is over 75 µM. Moreover, the EC50 in series [2] (setting [3]) was over 10 µM.
For the molecule `CC(C)(CO)C(=O)SCCOP(=O)(NCc1ccc(C(F)(F)F)cc1)OC[C@H]1O[C@@H](n2ccc(N)nc2=O)[C@](C)(O)[C@@H]1O` (stereo in doubt) [Example B399, Hydroxy-tBuSATE N-(4-(trifluoromethyl)benzyl)phosphosphoramidate Derivative of 2′-C-methylcytidine], in series [1], the CC50 is over 75 µM. In addition, the EC50 in series [2] (setting [3]) is 1 to 10 µM.
In the same order, the values of `C#C[C@@]1(F)[C@H](O)[C@@H](COP(=O)(NCc2ccccc2)OCCSC(=O)C(C)(C)CO)O[C@H]1n1cnc2c(=O)[nH]c(N)nc21` (stereo in doubt) [Example B503, N-Benzylaminyl-{9-[(2R)2-deoxy-2-fluoro-2-C-ethynyl-β-D-erythro-furanosyl]-guanin}-5′-yl-O-(hydroxy-tert-butyl-S-acyl-2-thioethyl) Phosphate] are over 75 µM and 1 to 10 µM.
`C[C@@]1(O)[C@H](O)[C@@H](CO)O[C@H]1n1cnc2c(N)ncnc21` [A374 (NM80), 2′-C-methyladenosine, reference compound] came in with a CC50 in series [1] of at most 75 µM. Besides, in series [2] (setting [3]), the EC50 was under 1 µM.
